Data on three compounds can be found in article PMC5719457, “Pseudomonas aeruginosa zinc uptake in chelating environment is primarily mediated by the metallophore pseudopaline” (Scientific Reports, 2017).

One test deals with T1, PaCntL (Pseudomonas aeruginosa, UniProt A0A0H2ZHV3).
T1 construct: gene cntL; full length, C-terminal His6 tag (pET22b+), E. coli BL21
Put plainly: TLC with […]-SAM; HILIC/ESI-MS. The test is classed as biochemical. As to conditions: product yNA.

A further test concerns the target T2, PaCntM (Pseudomonas aeruginosa, UniProt A0A0H2ZH12).
T2 construct: gene cntM; full length, N-terminal His6 tag (TEV-cleavable, pET-TEV), E. coli BL21
As to the kind of experiment: fluorescence resonance energy transfer titration (Trp to NAD(P)H). The test is classed as binding.

Each structure is given as a SMILES string.

T1 sequence (A0A0H2ZHV3 whole entry): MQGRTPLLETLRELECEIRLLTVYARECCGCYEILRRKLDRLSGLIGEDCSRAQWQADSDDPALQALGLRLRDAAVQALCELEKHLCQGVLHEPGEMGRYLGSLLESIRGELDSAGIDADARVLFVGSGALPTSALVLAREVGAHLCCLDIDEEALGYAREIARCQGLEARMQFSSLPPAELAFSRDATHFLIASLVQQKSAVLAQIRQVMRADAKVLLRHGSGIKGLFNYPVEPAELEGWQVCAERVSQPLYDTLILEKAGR
T2 sequence (A0A0H2ZH12 whole entry): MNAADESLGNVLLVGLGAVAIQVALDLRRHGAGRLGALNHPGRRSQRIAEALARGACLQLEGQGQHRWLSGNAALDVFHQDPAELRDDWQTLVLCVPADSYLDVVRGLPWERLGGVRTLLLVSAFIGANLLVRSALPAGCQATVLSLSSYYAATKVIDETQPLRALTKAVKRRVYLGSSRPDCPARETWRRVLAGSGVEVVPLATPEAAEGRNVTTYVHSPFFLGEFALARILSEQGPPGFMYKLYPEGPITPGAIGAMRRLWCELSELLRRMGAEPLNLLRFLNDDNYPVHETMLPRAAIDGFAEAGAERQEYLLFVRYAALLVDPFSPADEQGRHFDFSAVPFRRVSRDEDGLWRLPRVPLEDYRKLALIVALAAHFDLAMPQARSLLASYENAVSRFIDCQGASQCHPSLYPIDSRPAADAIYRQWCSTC

Consider `C[S+](CC[C@H](N)C(=O)O)C[C@H]1O[C@@H](n2cnc3c(N)ncnc32)[C@H](O)[C@@H]1O` (stereo partly drawn) [SAM], for which the “TLC with [14C]-SAM; HILIC/ESI-MS” value on PaCntL (co-substrate L-histidine, labelled compound (carboxyl-14C) in TLC) was “incubation of PaCntL with SAM and L-histidine led to the formation of the yNA”.

With `N[C@@H](Cc1cnc[nH]1)C(=O)O` [L-histidine], the “TLC with [14C]-SAM; HILIC/ESI-MS” value on PaCntL (co-substrate SAM) is recorded as “Only the incubation with L-histidine led to a novel band”.

As a reminder, the Kd is a measure of binding affinity in units of concentration. Higher therefore signals a looser complex. As for `NC(=O)C1=CN([C@@H]2O[C@H](COP(=O)(O)OP(=O)(O)OC[C@H]3O[C@@H](n4cnc5c(N)ncnc54)[C@H](O)[C@@H]3O)[C@@H](O)[C@H]2O)C=CC1` [NADH], the Kd at PaCntM amounted to 30 µM. This lies in the double-digit micromolar range.
